These molecules were tested on Lone star tick larvae (Amblyomma americanum) (assay: Larval immersion microassay against larval-stage Lone star ticks). Details: Amblyomma americanum, 24 h, read-out: activity (percent larval mortality).
Procedure: The larval immersion microassay was conducted as described in detail in White, et al., J. Med. Entomol. […] Compounds of the invention were formulated in dimethylsulfoxide (DMSO) to prepare a stock solution at a concentration of at least 10 mM. […] Approximately 30-50 Lone star tick larvae (Amblyomma americanum) were submerged into each well containing compounds. After a 30 minute immersion period, larvae were removed with a wide-bore pipette tip in 0.05 ml of fluid, dispensed into a commercial paper tissue biopsy bag which was sealed at the top with a plastic dialysis clip, inverted and allowed to air dry for 60 minutes. Bags containing larvae were then incubated at approximately 27 degrees Celsius and >90% relative humidity. After 24 hours, bags were opened, live and dead larvae were counted and percent larval mortality was calculated.
7 contains one chiral center, and is therefore a racemic mixture comprised of approximately 50% R- and 50% S-enantiomer. In vitro and surrogate animal (rat) studies were conducted to evaluate the biological activity of the R- and S-enantiomers of 7. For the in vitro study, larvae of the Lone star tick (Amblyomma americanum) were exposed to 17 (S-enantiomer) and 18 (R-enantiomer) using the larval immersion microassay at a concentration of no greater than 0.3 mM. Following exposure, larvae were removed, transferred to a tissue biopsy bag and incubated at approximately 27 degrees Celsius and >90% relative humidity. After 24 hours, biopsy bags were opened and the numbers of live and dead larvae were determined.

SMILES | mortality at 300 µM
Cc1c(Cl)cc(C2(C(F)(F)F)CC(c3ccc4c(c3)C(C)(C)OB4O)=NO2)cc1Cl (stereo not drawn) [Compound 9, 5-(5-(3,5-Dichloro-4-methylphenyl)-5-(trifluoromethyl)-4,5-dihydroisoxazol-3-yl)-3,3-dimethylbenzo[c][1,2]oxaborol-1(3H)-ol] | ≥ 80%
CC1(C)OB(O)c2ccc(C3=NOC(c4cc(Cl)c(C(F)(F)F)c(Cl)c4)(C(F)(F)F)C3)cc21 (stereo not drawn) [Compound 10, 5-(5-(3,5-Dichloro-4-(trifluoromethyl)phenyl)-5-(trifluoromethyl)-4,5-dihydroisoxazol-3-yl)-3,3-dimethyl-benzo[c][1,2]oxaborol-1(3H)-ol] | ≥ 80%
CC1(C)OB(O)c2ccc(C3=NOC(c4cc(Cl)c(OC(F)(F)F)c(Cl)c4)(C(F)(F)F)C3)cc21 (stereo not drawn) [Compound 12, 5-(5-(3,5-Dichloro-4-(trifluoromethoxy)phenyl)-5-(trifluoromethyl)-4,5-dihydro-isoxazol-3-yl)-3,3-dimethylbenzo[c][1,2]oxaborol-1(3H)-ol] | ≥ 80%
CC1(C)OB(O)c2ccc(C3=NOC(c4cc(Cl)c(Br)c(Cl)c4)(C(F)(F)F)C3)cc21 (stereo not drawn) [Compound 21, 5-(5-(4-Bromo-3,5-dichlorophenyl)-5-(trifluoromethyl)-4,5-dihydroisoxazol-3-yl)-3,3-dimethylbenzo[c][1,2]oxaborol-1(3H)-ol] | ≥ 80%
CC1(C)OB(O)c2cc(F)c(C3=NOC(c4cc(Cl)c(Cl)c(Cl)c4)(C(F)(F)F)C3)cc21 (stereo not drawn) [Compound 42, 6-Fluoro-3,3-dimethyl-5-(5-(3,4,5-trichlorophenyl)-5-(trifluoromethyl)-4,5-dihydroisoxazol-3-yl)benzo[c][1,2]oxaborol-1(3H)-ol] | ≥ 80%
CC1(C)OB(O)c2ccc(C3=NO[C@@](c4cc(Cl)c(F)c(Cl)c4)(C(F)(F)F)C3)cc21 [Compound 28, (S)-5-(5-(3,5-Dichloro-4-fluorophenyl)-5-(trifluoromethyl)-4,5-dihydroisoxazol-3-yl)-3,3-dimethylbenzo[c][1,2]oxaborol-1(3H)-ol] | ≥ 80%
COc1c(Cl)cc(C2(C(F)(F)F)CC(c3ccc4c(c3)C(C)(C)OB4O)=NO2)cc1Cl (stereo not drawn) [Compound 22, 5-(5-(3,5-Dichloro-4-methoxyphenyl)-5-(trifluoromethyl)-4,5-dihydroisoxazol-3-yl)-3,3-dimethylbenzo[c][1,2]oxaborol-1(3H)-ol] | ≥ 80%
CC1(C)OB(O)c2ccc(C3=NO[C@@](c4cc(Cl)cc(Cl)c4)(C(F)(F)F)C3)cc21 [Compound 3, (S)-5-(5-(3,5-dichlorophenyl)-5-(trifluoromethyl)-4,5-dihydroisoxazol-3-yl)-3,3-dimethyl benzo[c][1,2]oxaborol-1(3H)-ol] | ≥ 80%
OB1OCc2cc(C3=NOC(c4cc(Cl)cc(Cl)c4)(C(F)(F)F)C3)ccc21 (stereo not drawn) [Compound 1, 5-(5-(3,5-Dichlorophenyl)-5-(trifluoromethyl)-4,5-dihydroisoxazol-3-yl)benzo[c][1,2]oxaborol-1(3H)-ol] | ≥ 80%

Same assay, conditions: Amblyomma americanum; concentration of no greater than 0.3 mM; 30 minute immersion; counted after 24 hours; read-out: activity (percent larval mortality)

SMILES | mortality at 300 µM
CC1(C)OB(O)c2ccc(C3=NOC(c4ccc(F)c(Cl)c4)(C(F)(F)F)C3)cc21 (stereo not drawn) [Compound 19, 5-(5-(3-Chloro-4-fluorophenyl)-5-(trifluoromethyl)-4,5-dihydroisoxazol-3-yl)-3,3-dimethylbenzo[c][1,2]oxaborol-1(3H)-ol] | ≥ 80%
CC1(C)OB(O)c2ccc(C3=NOC(c4cc(F)c(Cl)c(Cl)c4)(C(F)(F)F)C3)cc21 (stereo not drawn) [Compound 26, 5-(5-(3,4-Dichloro-5-fluorophenyl)-5-(trifluoromethyl)-4,5-dihydroisoxazol-3-yl)-3,3-dimethylbenzo[c][1,2]oxaborol-1(3H)-ol] | ≥ 80%
CC1(C)OB(O)c2ccc(C3=NOC(c4cc(Br)cc(Br)c4)(C(F)(F)F)C3)cc21 (stereo not drawn) [Compound 5, 5-(5-(3,5-Dibromophenyl)-5-(trifluoromethyl)-4,5-dihydroisoxazol-3-yl)-3,3-dimethyl-benzo[c][1,2]oxaborol-1(3H)-ol] | ≥ 80%
